These results are taken from patent US10758585B2, “Beautyberry total glycosides extract and preparation method and use thereof” (Suzhou Neupharma Co., Ltd., priority 2012, dated 2020).

In the assay the test system is SH-SY5Y nerve cells. The assay is described as follows: Protective effect against MPP+ induced SH-SY5Y nerve cell injury (MTT cell viability). In kind it is cell-based. The following applies: 500 μM MPP+; for protective effect against MPP+ induced SH-SY5Y nerve cell injury: 24 h pre-protection + 24 h co-incubation, MTT, overall statement. The method, then:
SH-SY5Y nerve cells were purchased from ATTC (American Type Culture Collection, Rockville, Md., U.S.A). The cells was cultured with RPMI1640 medium (a product of Hyclone Company) containing 10% fetal bovine serum, 2 mM/L glutamine, as well as 1% penicillium and streptomycin doubleantibiotics, in the incubator at 37° C. and 5% CO2.
The extract tested was the beautyberry total glycosides extract prepared in Example 5 which contained 37.75 wt % verbascoside and 28.01 wt % Arenarioside. The beautyberry total glycosides extract prepared in Example 5, and stock solutions of verbascoside and Arenarioside prepared in 2.1 above were dissolved and formulated respectively with phosphate buffer (PBS) and the resulted solutions were diluted to test concentrations with RPMI 1640 culture medium. MPP+ solution was prepared by dissolving MPP+ to 1 mM with PBS. The test concentration of MPP+ was 500 μM diluted with the culture medium. MTT was formulated with PBS, at a concentration of 0.5 mg/ml, and was filtered to remove bacteria using a 0.22 μm filter membrane prior to use.
SH-SY5Y nerve cells at a logarithmic growth phase were collected and counted with a cell counter. 200 μl of cell suspension with 4×10^4/ml was added into each well of the 96-well plate (converted to 8×10^3/200 μl of the culture medium) and was subjected to adherent culture in the incubator at 37° C. and 5% CO2 for 24 hours. The experiment included 11 groups: (1) a blank control group, wherein RPMI 1640 culture medium was used, and incubation at 5% CO2 and 37° C. was performed for 24 h; (2) a model group, wherein RPMI 1640 culture medium containing 500 μM MPP+ was used, and incubation at 5% CO2 and 37° C. was performed for 24 h; (3) a high dose group (16 μg/mL), a medium dose group (1.6 μg/mL), and a low dose group (0.16 μg/mL) (equivalent to 10 μM, 1 μM, and 0.1 μM verbascoside, respectively) of tests of the extract of Example 5 in the present invention; (4) a high dose group (10 μM), amedium dose group (1 μM), and a low dose group (0.1 μM) of theverbascoside monomer prepared above; and (5) a high dose group (10 μM), a medium dose group (1 μM), and a low dose group (0.1 μM) of the Arenarioside monomer prepared above; wherein, in each experimental dosage groups of (3), (4), and (5), mother liquid of the drug to be tested was firstly diluted to a set dosage concentration with the RPMI 1640 culture medium, then added at 100 μL into the cells, which were pre-protected at 5% CO2 and 37° C. for 24 h, then supernatant was carefully pipetted and discarded, then, mother liquid of the drug to be tested was diluted to a set dosage concentration with the RPMI 1640 culture medium containing 500 μM MPP+ that was formulated beforehand, then added at 100 μL into the cells, which were proceeded to incubation at 5% CO2 and 37° C. for 24 h. Supernatant was carefully pipetted and discarded, placed upside-down on an absorbent paper and patted dry. After the blank group and themodel group were incubated for 24 h, operations were performed using the same method. 5 parallel wells were provided for each group of the samples. MTT at a concentration of 0.5 mg/ml was added into each well of each group above, and incubated at 5% CO2 and 37° C. for 4 h. Supernatant was carefully pipetted and discarded, placed upside-down on an absorbent paper and patted dry. 200 μL of dimethyl sulfoxide (DMSO) was added into each well, and shaken for 300 s. The absorbance value of each well was determined at OD 570 nm, and cell viability was calculated according to the following formula: […]

In the case of `C[C@@H]1O[C@@H](O[C@@H]2[C@@H](O)[C@H](OCCc3ccc(O)c(O)c3)O[C@H](CO)[C@H]2OC(=O)/C=C/c2ccc(O)c(O)c2)[C@H](O)[C@H](O)[C@H]1O` [verbascoside], the “protective effect against MPP+ induced SH-SY5Y nerve cell injury” value is given as “has a protective effect”. Moreover, the “cell viability compared with the model group” value (0.1 μM monomer) is “significant difference compared to the model group (p<0.01)”. Further, the “cell viability compared with the model group” value (1 μM monomer) is “significant difference compared to the model group (p<0.01)”.
On to `CC1O[C@@H](O[C@@H]2C(O)[C@H](OCCc3ccc(O)c(O)c3)OC(CO[C@@H]3OC[C@@H](O)[C@@H](O)C3O)[C@@H]2OC(=O)/C=C/c2ccc(O)c(O)c2)C(O)[C@@H](O)[C@H]1O` (stereo partly drawn) [Arenarioside], for which the “protective effect against MPP+ induced SH-SY5Y nerve cell injury” value is given as “has a protective effect”. Besides, the “cell viability compared with the model group” value (0.1 μM monomer) is reported as “significant higher cell viability as compared with the model group (p<0.01)”. In addition, for the setting “1 μM monomer”, the “cell viability compared with the model group” value is “significant higher cell viability as compared with the model group (p<0.01)”.
